Patent US12139729B2, “Neurodegenerative disorders” (priority 2013, dated 2024)
Residues, ends and D or L forms follow the SMILES beside them.

Legend:
[1] = test system: rat model for hemi-Parkinsonism; test: Paw placement test (cylinder test) after 6-OHDA lesion; format: in vivo; details: day 2: two days post 6-OHDA, one day after NBP-14 injection via cannula into MFB; p<0.05 vs 6-OHDA vehicle
Method: Unlike animal models for Alzheimer's disease, the rat model for hemi-Parkinsonism is very well established and readily quantifiable. Accordingly, a unilateral intra striatum injection of the T30 was administered to observe any behavioural effects of the toxin. In a subsequent experiment, the potential protective effects of NBP14 were observed against the well-known neurotoxin 6-hydroxydopamine (6-OHDA), which led to DA neuron loss on the injected side whilst sparing the contralateral DA neurons. NBP-14 was administered via implanted cannula into the medial forebrain bundle (MFB). 6-hydroxydopamine was injected at 10 mg/kg.
Animals are anaesthetized using Ketamine (10%; 0.1 ml/kg body weight) and Xylazine (2%; 0.01 ml/kg). The animals are then stereotactically injected into the MFB with 2 μL 6-OHDA at a concentration of 20 mg/ml in 0.02% ascorbic acid. […]
Paw Placement Test (Cylinder Test): This test assesses a rat's independent forelimb use to support the body against the walls of a cylindrical enclosure. […] To perform this test, rats are placed individually in a glass cylinder (21 cm diameter, 34 cm height) and wall exploration is recorded for 3 minutes. […] Wall exploration is expressed in terms of the ratio between the intact (R) and impaired legs (L) and calculated as the values of intact right+both forelimbs divided into the values of impaired left+both forelimbs (R/L). […]

PC12 cells [2] = test: Sulforhodamine B (SRB) cell viability assay; format: cell-based
Method: Wild-type PC12 cell were provided by Sigma-Aldrich (St. Louis, MO). The culture was routinely plated in 100 mm dishes (Corning) coated with collagen (2 μg/cm^2) and maintained in growth medium with Minimum Essential Medium Eagle (MEM) supplemented with heat-inactivated 10% horse serum (HS) and 5% foetal bovine serum (FBS), 10 mM HEPES, 2 mM L-Glutamine and 1:400 Penicillin/streptomycin solution. Cells were maintained at 37° C. in a humidified atmosphere 5% CO2 and the medium was replaced every 2 days. For splitting, cells were dislodged from the dish using a pipette with medium, with a portion of these replated onto new cultured dishes. Cells were used between passages 12 and 25.
The cell viability assay used was the sulforhodamine B (SRB) colorimetric assay for toxicity screening. The day before of the experiment cells were seeded onto collagen-coated 96-well plates in a concentration of 40,000 cells/well. Cell concentration was determined by the Fuchs-Rosenthal chamber. […] After treatment, medium was replaced and cells were fixed by adding 100 μl of 10% Trichloroacetic Acid (TCA) for 1 h at 4° C. Thereafter, cells were washed with H2O and stained with 100 μl of a 0.057% SRB solution in 1% Acetic acid (HAc) for 30 minutes at room temperature. After staining cells were washed with 1% HAc for removing the excess of SRB and then incubated with 200 μl of 10 mM Tris base (pH 10.5) and shake it for 5 minutes to solubilise the protein-bound dye. Measurement of the absorbance took place in a VMax Kinetic Microplate Reader (Molecular Devices) at 490 nm.

[3] = Partition coefficient (Log P), shake-tube method, 1-octanol/water; format: physicochemical; details: room temperature
Method: Saturation of the solvents was performed as follows. 1-octanol was agitated in the presence of water for 24 h at room temperature. mQ water was agitated in presence of 1-octanol for 24 h at room temperature. Then the solutions were left to equilibrate overnight at room temperature. Saturated solvents were collected, using syringes and needles, and stored at room temperature until further use.
Saturated water and saturated i-octanol were placed in a glass tube in the following ratios: Each tube contained the equivalent of 0.25 mg of cyclic T14. All tubes were then mixed for 4 h at room temperature. After agitation the tubes were left at room temperature to equilibrate.
The concentrations of cyclic T14 used for the standard curve were: 0.5 mg·ml^−1, 0.25 mg·ml^−1, 0.13 mg·ml^−1, 0.066 mg·ml^−1, 0.033 mg·ml^−1 and 0.016 mg/ml^−1. The absorbance of the standard curve was measured at 280 nm.
Both fractions of each sample were collected separately using a syringe with needle. The absorbance of all fractions was measured at 280 nm and the concentration of all the fraction was estimated based on the standard curve. The partition coefficient of cyclic T14 was calculated using the following equation: Log P=Log (Concentration in Octanol/Concentration in Water)
The results from each condition were averaged in order to obtain the Log P of cyclic T14.

rat brain slices = test: Calcium fluorometry (Fluo-4) in brain slices; format: cell-based; details: two hours
Method: Increases in intracellular Ca^2+ were monitored by measuring changes in fluorescence in cells loaded with Fluo-4 (Life Technologies Corporation, UK). […] After the 2 hours, slices were incubated in the dark for 40 minutes at room temperature with 1.2 ml/well of loading medium that contained: Tyrode's salt solution (TSS; 137 mM NaCl, 2.7 mM KCl, 1.0 mM MgCl2, 2.5 mM CaCl2, 0.2 mM NaH2PO4, 12.0 NaHCO3, 5.5 glucose, pH 7.4), Fluo-4 (2 μM), Pluronic F127 (0.02%) and probenecid (2 mM). Probenecid is a blocker of the multidrug resistant protein, an ion transporter, and avoids the excretion of the fluorescent molecule from the cell. After incubation, slices were washed with TSS and 1200 μl/well of de-esterification medium, containing TSS and probenecid, were added. Slices were incubated in the dark for 20 minutes at 22° C. Fluorescence measurements (excitation 485 nm, emission 538 nm) were recorded in a Fluostar Optima (BMG, UK) plate reader.

PC12 cells [4] = test: Cell Counting Kit-8 (CCK-8) cell viability assay; format: cell-based; details: T30 5 uM, FIG. 15
Text: A Cell Counting Kit-8 (CCK-8) was used as an improvement of the SRB technique used before. By utilizing the highly water-soluble tetrazolium salt WST-8, CCK-8 produces a water-soluble formazan dye upon reduction in the presence of an electron carrier. WST-8 is reduced by dehydrogenases in cells to give a yellow colored product (formazan), which is soluble in the tissue culture medium. The amount of the formazan dye generated by the activity of dehydrogenases in cells is directly proportional to the number of living cells. PC12 cells are plated in 200 μl of complete growth medium the day before the experiment in 96 well plates. Treatments with T30 and NBP-14 are added and incubated for 1 hour in the incubator.
Subsequently, 100 μl of growth medium is removed and 10 μl of CCK-8 (Cell Counting Kit-8) solution is added. The plate is incubated for 2 hours in the incubator and then placed in the absorbance plate reader. The absorbance must be measured at 450 nm.

CSCC[C@@H]1NC(=O)[C@H](Cc2ccc(O)cc2)NC(=O)[C@H](CO)NC(=O)[C@H](CO)NC(=O)[C@H](Cc2c[nH]c3ccccc23)NC(=O)[C@H](CCCNC(=N)N)NC(=O)[C@H](Cc2c[nH]cn2)NC(=O)[C@H](Cc2ccccc2)NC(=O)[C@H](CCC(=O)O)NC(=O)[C@H](C)NC(=O)[C@H](CCCCN)NC(=O)[C@H](Cc2c[nH]c3ccccc23)NC(=O)[C@H](Cc2c[nH]cn2)NC(=O)[C@H](C(C)C)NC1=O [Cyclic T14] (cyclo(AEFHRWSSYMVHWK))
R/L ratio of paw placement [1]: 3.62±0.55
protection against non-specific cytotoxic effect of H2O2 (H2O2 alone vs combined) (PC12 cells [2]; H2O2 100 μM + Cyclic T14 100 nM, PC12): no significant difference
threshold dose for full protection against β-amyloid (PC12 cells [2]; PC12, 1 hour): 1 nM
minimum effective concentration against β-Amyloid (10 μM) on cell viability (PC12 cells [2]; PC12, FIG. 8): 1 nM
blocks β-Amyloid at low doses (Table 3 feature) (PC12 cells [2]; ✓ = Dream Drug feature 'Blocks β-Amyloid at low doses 1 nM)'): ✓
logP [3]: -0.59
intracellular calcium level raised by β-Amyloid, combined with Cyclic T14 (rat brain slices; Cyclic T14 1 μM + β-Amyloid 10 μM): returned to baseline
intracellular calcium level, compound alone (rat brain slices; Cyclic T14 1 μM): does not change the basal level
concentration range protective against T30 induced cell death (PC12 cells [4]): high nanomolar range
